Laboratory results from patent publication US20260184707A1, “PHARMACEUTICAL COMPOUNDS FOR THE TREATMENT OF COMPLEMENT MEDIATED DISORDERS” (ALEXION PHARMACEUTICALS, INC., priority 2022, published 2026).

What follows are compounds tested against T1, Human complement C1s enzyme (Homo sapiens, UniProt P09871) (assay: Human C1s enzyme assay). Conditions: human complement C1s enzyme 1.16 nM, substrate Z-L-Lys-SBzl, A405; read-out: IC50 (Stars).
T1 construct: purified from human serum, Complement Technology, Inc; purchased Complement Technology, Inc; host or cells: human serum (plasma-derived native protein)
T1 sequence (P09871 438-688 limits assumed): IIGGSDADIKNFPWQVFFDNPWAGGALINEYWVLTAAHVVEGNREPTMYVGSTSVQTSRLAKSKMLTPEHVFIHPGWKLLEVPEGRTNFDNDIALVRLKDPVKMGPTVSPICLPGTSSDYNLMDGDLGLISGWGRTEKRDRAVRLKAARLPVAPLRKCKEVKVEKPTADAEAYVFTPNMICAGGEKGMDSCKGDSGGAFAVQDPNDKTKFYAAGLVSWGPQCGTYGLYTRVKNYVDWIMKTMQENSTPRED
T1 sequence (P09871 16-437 partner limits assumed): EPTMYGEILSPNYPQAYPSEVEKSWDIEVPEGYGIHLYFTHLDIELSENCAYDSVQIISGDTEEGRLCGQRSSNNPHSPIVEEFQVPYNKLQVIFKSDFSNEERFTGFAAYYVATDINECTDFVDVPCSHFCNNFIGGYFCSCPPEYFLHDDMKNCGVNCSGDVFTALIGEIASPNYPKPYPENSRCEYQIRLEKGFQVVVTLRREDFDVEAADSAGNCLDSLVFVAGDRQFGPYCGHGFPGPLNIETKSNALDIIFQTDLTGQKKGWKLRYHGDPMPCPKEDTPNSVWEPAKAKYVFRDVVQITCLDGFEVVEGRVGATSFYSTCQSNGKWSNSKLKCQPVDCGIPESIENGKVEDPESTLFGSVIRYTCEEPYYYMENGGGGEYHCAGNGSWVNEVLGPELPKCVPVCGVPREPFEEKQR
Type: biochemical
In short: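 Thioesterase activity followed colorimetrically (DTNB, A405, 30-s reads) using 100 μM Z-L-Lys-SBzl substrate. Enzyme, human serum-derived C1s at 1.16 nM final, was incubated with test compound for 5 min, room temperature, pH 7.5 Tris buffer with 1 M NaCl. Rate-versus-concentration data fitted by nonlinear regression for IC50.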

IC50 [nM]	SMILES
< 100	O=C(Cn1c(N2CCCCC2)cnc(NCc2noc(-c3ccccc3)n2)c1=O)NCc1cc2cnccc2[nH]1 [Compound 478, N-((1H-pyrrolo[3,2-c]pyridin-2-yl)methyl)-2-(2-oxo-3-(((5-phenyl-1,2,4-oxadiazol-3-yl)-methyl)amino)-6-(piperidin-1-yl)pyrazin-1(2H)-yl)acetamide]
< 100	C[C@H](Nc1cnc(-c2cnn(C)c2)n(CC(=O)NCc2cc3cnccc3[nH]2)c1=O)c1ccc2oc3ccccc3c2c1 [Compound 283, (S)-N-((1H-pyrrolo[3,2-c]pyr-idin-2-yl)methyl)-2-(5-((1-(dibenzo[b,d]furan-2-yl)ethyl)-amino)-2-(1-methyl-1H-pyr-azol-4-yl)-6-oxopyrimidin-1(6H)-yl)acetamide]
< 100	C[C@@H](Nc1cnc(-c2cscn2)n(CC(=O)NCc2cc3cnccc3[nH]2)c1=O)c1ccc2oc3ccccc3c2c1 [Compound 339, (R)-N-((1H-pyrrolo[3,2-c]pyridin-2-yl)methyl)-2-(5-((1-(dibenzo[b,d]furan-2-yl)ethyl)-amino)-6-oxo-2-(thiazol-4-yl)-pyrimidin-1(6H)-yl)acetamide]
< 100	O=C(Cn1c(-c2ccccc2)ncc(NC(=O)c2ccc(-c3cnc[nH]3)cc2)c1=O)NCc1cc2cnccc2[nH]1 [Compound 174, N-(1-(2-(((1H-pyrrolo[3,2-c]pyridine-2-yl)methyl)amino)-2-oxoethyl)-6-oxo-2-phenyl-1,6-dihydropyrimidin-5-yl)-4-(1H-imidazol-5-yl)benzamide]
> 1000	C[C@H](NC(=O)Cn1c(-c2ccccc2)cnc(NCCCc2ccccc2)c1=O)c1cc2cnccc2[nH]1 [Compound 47, (S)-N-(1-(1H-pyrrolo[3,2-c]pyridin-2-yl)ethyl)-2-(2-oxo-6-phenyl-3-((3-phenylpropyl)-amino)pyrazin-1(2H)-yl)-acetamide]
< 100	C[C@@H](Nc1ncc(-c2ccccc2)n(CC(=O)NCc2cc3cnccc3[nH]2)c1=O)c1ccc2oc3ccccc3c2c1 [Compound 348, (R)-N-((1H-pyrrolo[3,2-c]pyridin-2-yl)methyl)-2-(3-((1-(dibenzo[b,d]furan-2-yl)ethyl)-amino)-2-oxo-6-phenylpyr-azin-1(2H)-yl)acetamide]
> 1000	CC1CCCN(c2ncc(N[C@H](C)c3ccc4oc5ccccc5c4c3)c(=O)n2CC(=O)NCc2cc3cnccc3[nH]2)C1 (stereo partly drawn) [Compound 381, N-((1H-pyrrolo[3,2-c]pyridin-2-yl)methyl)-2-(5-(((R)-1-(dibenzo[b,d]furan-2-yl)ethyl)-amino)-2-(3-methylpiperidin-1-yl)-6-oxopyrimidin-1(6H)-yl)acetamide]
100 to 1000	C[C@@H](Nc1cnc(N2CCCC2)n(CC(=O)NCc2cc3cnccc3[nH]2)c1=O)c1coc(-c2ccccc2)n1 [Compound 481, (R)-N-((1H-pyrrolo[3,2-c]pyridin-2-yl)methyl)-2-(6-oxo-5-((1-(2-phenyloxazol-4-yl)-ethyl)amino)-2-(pyrrolidin-1-yl)pyrimidin-1(6H)-yl)acet-mide]
< 100	O=C(Cn1c(-c2ccccc2)ncc(NC(=O)c2nnc(-c3ccccc3)o2)c1=O)NCc1cc2cnccc2[nH]1 [Compound 223, N-(1-(2-(((1H-pyrrolo[3,2-c]pyridine-2-yl)methyl)amino)-2-oxoethyl)-6-oxo-2-phenyl-1,6-dihydropyrimidin-5-yl)-5-phenyl-1,3,4-oxadiazole-2-carboxamide]
100 to 1000	C[C@@H](Nc1cnc(C2CCCC2)n(CC(=O)NCc2cc3cnccc3[nH]2)c1=O)c1coc(-c2ccccc2)n1 [Compound 476, (R)-N-((1H-pyrrolo[3,2-c]pyridin-2-yl)methyl)-2-(2-cyclopentyl-6-oxo-5-((1-(2-phenyloxazol-4-yl)ethyl)-amino)pyrimidin-1(6H)-yl)-acetamide]
> 1000	COC[C@H]1CCCN(c2ncc(N[C@H](C)c3ccc4oc5ccccc5c4c3)c(=O)n2CC(=O)NCc2cc3cnccc3[nH]2)C1 [Compound 467, N-((1H-pyrrolo[3,2-c]pyridin-2-yl)methyl)-2-(5-(((R)-1-(dibenzo[b,d]furan-2-yl)ethyl)-amino)-2-((S)-3-(methoxy-methyl)piperidin-1-yl)-6-oxo-pyrimidin-1(6H)-yl)acetamide]
< 100	O=C(Cn1c(-c2ccccc2)ncc(NC(=O)c2ccc(-c3ccccc3)cc2)c1=O)NCc1cc2cnccc2[nH]1 [Compound 29, N-(1-(2-(((1H-pyrrolo[3,2-c]pyridin-2-yl)methyl)amino)-2-oxoethyl)-6-oxo-2-phenyl-1,6-dihydropyrimidin-5-yl)-[1,1′-biphenyl]-4-carboxamide]
< 100	O=C(Cn1c(-c2ccccc2)ncc(NC(=O)c2csc(-c3ccccc3)n2)c1=O)NCc1cc2cnccc2[nH]1 [Compound 209, N-(1-(2-(((1H-pyrrolo[3,2-c]pyridin-2-yl)methyl)amino)-2-oxoethyl)-6-oxo-2-phenyl-1,6-dihydropyrimidin-5-yl)-2-phen-ylthiazole-4-carboxamide]
< 100	O=C(Cn1c(C2CC2)ncc(NCc2ccc3oc4ccccc4c3c2)c1=O)NCc1cc2cnccc2[nH]1 [Compound 330, N-((1H-pyrrolo[3,2-c]pyridin-2-yl)methyl)-2-(2-cyclopropyl-5-((dibenzo[b,d]furan-2-yl-methyl)amino)-6-oxopyrimi-din-1(6H)-yl)acetamide]
< 100	O=C(Cn1c(-c2ccccc2)ncc(NCCCc2ccc(C(=O)c3ccccc3)cc2)c1=O)NCc1cc2cnccc2[nH]1 [Compound 41, N-((1H-pyrrolo[3,2-c]pyridin-2-yl)methyl)-2-(5-((3-(4-benzo-ylphenyl)propyl)amino)-6-oxo-2-phenylpyrimidin-1(6H)-yl)-acetamide]
< 100	C[C@@H](Nc1cnc(N2CCCC2)n(CC(=O)NCc2cc3cnccc3[nH]2)c1=O)c1ccc(-c2ccccc2F)cc1 [Compound 422, (R)-N-((1H-pyrrolo[3,2-c]pyridin-2-yl)methyl)-2-(5-((1-(2′-fluoro-[1,1′-biphenyl]-4-yl)ethyl)amino)-6-oxo-2-(pyr-rolidin-1-yl)pyrimidin-1(6H)-yl)acetamide]
< 100	CO[C@@H]1CO[C@H]2[C@@H]1OC[C@H]2Oc1ccc(-c2ncc(NCCCc3ccccc3)c(=O)n2CC(=O)NCc2cc3cnccc3[nH]2)cc1 [Compound 189, N-((1H-pyrrolo[3,2-c]pyridine-2-yl)methyl)-2-(2-(4-(((3R,3aR,6R,6aR)-6-methoxyhexahydrofuro[3,2-b]furan-3-yl)oxy)phenyl)-6-oxo-5-((3-phenylpropyl)amino)pyrimidin-1(6H)-yl)acetamide]
> 1000	Cc1ccccc1-c1ncc(N[C@H](C)c2ccc3oc4ccccc4c3c2)c(=O)n1CC(=O)NCc1cc2cnccc2[nH]1 [Compound 356, 2-[5-[[(1R)-1-dibenzofuran-2-ylethyl]amino]-2-(o-tolyl)-6-oxo-pyrimidin-1-yl]-N-(1H-pyrrolo[3,2-c]pyridine-2-ylmethyl)acetamide]
< 100	C[C@@H](Nc1ncc(N2CCC(O)CC2)n(CC(=O)NCc2cc3cnccc3[nH]2)c1=O)c1ccc2oc3ccccc3c2c1 [Compound 470, (R)-N-((1H-pyrrolo[3,2-c]pyridin-2-yl)methyl)-2-(3-((1-(dibenzo[b,d]furan-2-yl)ethyl)-amino)-6-(4-hydroxypiperidin-1-yl)-2-oxopyrazin-1(2H)-yl)-acetamide]
